Data from patent US11713470B2, “Targeted gene therapies for pain and other neuro-related disorders” (University of Pittsburgh—Of the Commonwealth System of …, priority 2017, dated 2023).
“Also recorded” adds a separate entry of the source.

Assays:
[1] = target: T1, PSAM-GlyR in calretinin neurons in the dorsal horn lamina II (Homo sapiens, UniProt P23415+P36544, L141F); format: in vivo, mouse; conditions: Calr^Cre mice with PSAM-GlyR, 30 mg/kg i.p.
T1 construct: plasmid from Addgene (Sternson); host or cells: mouse dorsal horn neurons transduced with Cre-dependent AAV2/8 (Tlx3^Cre, CCK^Cre or Calr^Cre mice)
Text: (§1) Methods. Animals: All animals were kept on a standard 12:12 light/dark cycle in micro-isolator caging racks (Allentown Caging) with food and water provided ad libitum. Mouse strains obtained from Jackson Laboratories include C57Bl/6J (JAX #000664), Calr^Cre (JAX #010774) and CCK^Cre (JAX #012706). Adeno-associated viruses (AAV2/8) used in these experiments: hSyn-Flex-rev-PSAM^L141F-GlyR-IRES-eGFP (7^12 vg/ml) and hSyn-Flex-rev-PSAM^L141F,Y115F-GlyR-IRES-eGFP (1.7^13 vg/ml) were custom made by UNC Vector core based on plasmid material developed by Scott Sternson and provided by Addgene. The hSyn-Flex-rev-PSAM^L141F-GlyR-IRES-eGFP (7^12 vg/ml) was used in all experiments except FIG. 8 (e,f). For these experiments, hSyn-Flex-rev-PSAM^L141F,Y115F-GlyR-IRES-eGFP (1.7^13 vg/ml) was used. Methods including: intra-spinal virus injections, paw withdrawal threshold to von Frey filaments, to cotton swab, Hargreaves, pinprick and acute pain behaviors licking, guarding, flicking are all as previously described (Peirs, C. et al. Dorsal Horn Circuits for Persistent Mechanical Pain. Neuron 87, 797-812 (2015); Seal, R. P. et al. Injury-induced mechanical hypersensitivity requires C-low threshold mechanoreceptors. Nature 462, 651-655, (2009)); For paw withdrawal threshold to pressure: mice were lightly restrained by hand such that their rear legs were allowed to freely hang. Using a Pressure Application Measurement device (Ugo Basile) the hind paw was grasped between the experimenter's forefinger and thumb (with pressure transducer on the thumb), and force was slowly applied to the paw until the mouse struggled or flicked its limb (paw withdrawal threshold, PWT). The final force in grams was recorded. Each mouse was tested on the left and right paw for three trials with a ten-minute inter-trial interval between applications, and the three results averaged for each paw. Injury Models including incision, complete Freund's adjuvant, spared nerve injury tibial and sural models, carrageenan, methylglyoxal and multi-dose streptozotocin are as previously described (Peirs, C. et al. Dorsal Horn Circuits for Persistent Mechanical Pain. Neuron 87, 797-812 (2015); Seal, R. P. et al. Injury-induced mechanical hypersensitivity requires C-low threshold mechanoreceptors. Nature 462, 651-655, (2009); Decosterd, I. and Woolf, C. J. Spared nerve injury: an animal model of persistent peripheral neuropathic pain. Pain 87, 149-158 (2000); Bierhaus, A. et al. Methylglyoxal modification of Nav1.8 facilitates nociceptive neuron firing and causes hyperalgesia in diabetic neuropathy. Nat Med 18, 926-933 (2012); Cavanaugh, D. J. et al. Distinct subsets of unmyelinated primary sensory fibers mediate behavioral responses to noxious thermal and mechanical stimuli. Proc Natl Acad Sci USA 106, 9075-9080, (2009)). Chemogenetic Activation of PSAM-GlyR Receptor: Behavior thresholds were performed as described above in AAV8-hSyn-DIO-PSAM-GlyR-IRES-GFP injected mice. PSEM^89S at 30 mg/kg was injected intraperitoneally 15 minutes prior to testing. Immunohistochemistry was performed as previously described (Peirs, C. et al. Dorsal Horn Circuits for Persistent Mechanical Pain. Neuron 87, 797-812 (2015); Seal, R. P. et al. Injury-induced mechanical hypersensitivity requires C-low threshold mechanoreceptors. Nature 462, 651-655 (2009)). α-bungarotoxin conjugated to Alexa-647 (1:1000; ThermoFisher B35450), α-bungarotoxin conjugated to Alexa-488 (1:1000; ThermoFisher B13422). Imaging: Spinal cord sections were imaged with a confocal laser-scanning microscope (Nikon A1R) and Nikon Elements software using 405-, 488-, 561- and 640 nm excitation laser light. In order to suppress emission crosstalk, the microscope was configured to perform all scanning in sequential mode. Z-series were scanned at 20× magnification with an oil immersion lens and a z-step of 5.0 μm. Quantification and Statistical Analysis: all data are reported as mean±SEM. For acute behaviors, a two-tailed Student's t-test was used. […]

[2] = target: T2, PSAM-GlyR in CCK^+ dorsal horn neurons (Homo sapiens, UniProt P23415+P36544, L141F); format: in vivo, mouse; conditions: CCK^Cre mice with PSAM-GlyR
T2 construct: plasmid from Addgene (Sternson); host or cells: mouse dorsal horn neurons transduced with Cre-dependent AAV2/8 (Tlx3^Cre, CCK^Cre or Calr^Cre mice)
Text: as §1

[3] = target: T1, PSAM-GlyR in calretinin neurons in the dorsal horn lamina II; experiment: Inflammatory pain models in Calr^Cre mice expressing PSAM-GlyR in the dorsal horn; format: in vivo, mouse; conditions: 30 mg/kg i.p.
Text: as §1, with “Nat Med 18, 926-933 (2012); Cavanaugh, D. J. et al. Distinct subsets of unmyelinated primary sensory fibers mediate behavioral responses to noxious thermal and mechanical stimuli. Proc Natl Acad Sci USA 106, 9075-9080, (2009)). Chemogenetic Activation of PSAM-GlyR Receptor: Behavior thresholds were performed as described above in AAV8-hSyn-DIO-PSAM-GlyR-IRES-GFP injected mice. PSEM^89S at 30 mg/kg was injected intraperitoneally 15 minutes prior to testing. Immunohistochemistry was performed as previously described (Peirs, C. et al. Dorsal Horn Circuits for Persistent Mechanical Pain. Neuron 87, 797-812 (2015); Seal, R. P. et al. Injury-induced mechanical hypersensitivity requires C-low threshold mechanoreceptors. Nature 462, 651-655 (2009)). α-bungarotoxin conjugated to Alexa-647 (1:1000; ThermoFisher B35450), α-bungarotoxin conjugated to Alexa-488 (1:1000; ThermoFisher B13422). Imaging: Spinal cord sections were imaged with a confocal laser-scanning microscope (Nikon A1R) and Nikon Elements software using 405-, 488-, 561- and 640 nm excitation laser light. In order to suppress emission crosstalk, the microscope was configured to perform all scanning in sequential mode. Z-series were scanned at 20× magnification with an oil immersion lens and a z-step of 5.0 μm.” left out, “mean±SEM.” for “mean±SEM. For acute behaviors, a two-tailed Student's t-test was used.”

[4] = target: T3, PSAM-GlyR in CCK^+ dorsal horn neurons (Homo sapiens, UniProt P23415+P36544, L141F/Y115F); experiment: Persistent pain models in mice expressing PSAM-GlyR in CCK^+ dorsal horn neurons; format: in vivo, mouse; conditions: PSAM^L141F,Y115F-GlyR virus, CCK^+ neurons
T3 construct: plasmid from Addgene (Sternson); host or cells: mouse dorsal horn neurons transduced with Cre-dependent AAV2/8 (Tlx3^Cre, CCK^Cre or Calr^Cre mice)
Text: as §1

[5] = target: T2, PSAM-GlyR in CCK^+ dorsal horn neurons; experiment: as above; format: in vivo, mouse; conditions: 30 mg/kg i.p., PSAM-GlyR in CCK^+ neurons
Text: as §1

PSAM-GlyR = conditions: Magnus et al. 2011; cited from earlier work

T1 sequence (P36544+P23415 fused P36544:L141F): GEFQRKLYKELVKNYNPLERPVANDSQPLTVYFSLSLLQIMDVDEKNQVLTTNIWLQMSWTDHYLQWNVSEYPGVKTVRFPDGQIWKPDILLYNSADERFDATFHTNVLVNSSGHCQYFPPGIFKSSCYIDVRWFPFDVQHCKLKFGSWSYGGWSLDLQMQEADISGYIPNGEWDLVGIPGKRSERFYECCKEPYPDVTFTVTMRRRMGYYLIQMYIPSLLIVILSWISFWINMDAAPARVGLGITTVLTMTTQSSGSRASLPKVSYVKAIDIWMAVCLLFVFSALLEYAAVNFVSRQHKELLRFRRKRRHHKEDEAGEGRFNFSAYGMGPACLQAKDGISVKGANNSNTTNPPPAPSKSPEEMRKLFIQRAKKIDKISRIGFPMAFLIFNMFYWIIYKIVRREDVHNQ
T2 sequence (P36544+P23415 fused P36544:L141F): as above
T3 sequence (P36544+P23415 fused P36544:Y115F/P36544:L141F): as the sequence (P36544+P23415 fused P36544:L141F) above, with Y93F counted along it

Compound: COc1ccc(OC)c(C(=O)NC2CN3CCC2CC3)c1 (stereo not shown) [PSEM^89S]
- baseline ipsilateral von Frey threshold ([1]; p=0.3988): no effect
- baseline Hargreaves latencies ([1]; p=0.6125): unchanged
- baseline pinprick ([1]; p=0.7689): no effect
- baseline response to cotton swab ([1]; p=0.7963): no effect
- baseline pressure with calibrated calipers ([1]; p=0.8350): no effect
- baseline sticky tape ([1]; p=0.9346): no effect
- performance on the rotarod [2]: not altered
- baseline von Frey threshold ([2]; 30 mg/kg i.p., p=0.2192): no effect
- baseline pinprick ([2]; p=0.5983): no effect
- baseline response to cotton swab ([2]; p=0.7293): no effect
- baseline pressure with calibrated calipers ([2]; p=0.7450): no effect
- baseline Hargreaves latencies ([2]; p=0.9746): unchanged
- mechanical allodynia (punctate), carrageenan model ([3]; 24 hours after carrageenan, p=0.0074): reverses; also recorded: significantly reversed
- mechanical allodynia (punctate), CFA model ([3]; 5 days after CFA, ipsilateral hindpaw, p=0.0026): reverses; also recorded: complete reversal
- dynamic mechanical allodynia, incision model ([3]; p=0.0001): reverses
- punctate mechanical allodynia, incision model ([3]; p=0.0028): reverses
- heat hypersensitivity induced by multi-dose STZ ([4]; p=0.010): reversed
- heat hypersensitivity induced by MG (methylglyoxal) ([4]; p=0.0272): reversed
- dynamic allodynia, carrageenan pain model ([5]; p=0.0001): significantly reversed
- dynamic allodynia, sural-SNI model ([5]; p=0.0001): significantly reversed
- heat hypersensitivity, carrageenan pain model ([5]; p=0.0002): significantly reversed
- punctate allodynia, sural-SNI model ([5]; p=0.0003): significantly reversed
- dynamic allodynia, CFA model ([5]; p=0.0016): markedly reversed; also recorded: significantly reversed
- punctate allodynia, carrageenan pain model ([5]; p=0.0017): significantly reversed
- punctate allodynia, CFA model ([5]; p=0.0034): markedly reversed; also recorded: significantly reversed
- punctate allodynia, tibial-SNI model ([5]; p=0.0054): markedly reversed
- heat hypersensitivity, CFA model ([5]; p=0.0368): markedly reversed; also recorded: significantly reversed
- binding to the mutated receptor binding domain (PSAM-GlyR): high affinity
